From patent US20200078468A1, “NEUROTENSIN RECEPTOR BINDING CONJUGATES AND FORMULATIONS THEREOF” (priority 2016, published 2020)
Read-outs that look alike come from different tables or passages of the source.

Legend:
human NTSR1 = biological target: T1, human NTSR1 (Homo sapiens, UniProt P30989); test: radioligand-receptor binding assay, [125I] labeled neurotensin (Eurofins Panlabs); conditions: [125I] neurotensin 0.02 nM, membranes from NTSR1 expressing HEK-293 cells, 45 minute incubation, Cheng and Prusoff; read-out: NTSR1 binding Ki
T1 construct: host or cells: HEK-293 cells (membrane preparations)
How it was run: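 Membranes from HEK-293 cells expressing human NTSR1 incubated 45 min with 0.02 nM [125I]neurotensin and conjugate in 6-point 3-fold dilutions from 100 or 10 nM; bound radioactivity counted after filtration. IC50 by nonlinear regression, converted to Ki via Cheng–Prusoff using historical ligand Kd.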

[1] = system: SW48 (human colon cancer cells); test: inhibition of SW48 cell proliferation (CellTiter Glo); assay type: cell-based; conditions: 72 hrs, read-out: SW-48 proliferation IC50
How it was run: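 Cells plated at 5,000/well and grown 24 hrs were exposed to conjugates for 72 hrs at 37° C, 5% CO2, in a ten-point three-fold series starting at 10 μM; vehicle was 0.01% DMSO. Proliferation was read by CellTiter Glo. % inhibition was taken relative to vehicle, with IC50 from four-parameter nonlinear regression.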

[2] = system: HT-29 cells (human colon cancer cells); test: inhibition of HT29 cell proliferation (Cell Titer Glo 2.0); assay type: cell-based; conditions: 72 h
Method: Conjugates were assessed in an in vitro assay evaluating inhibition of cell proliferation. HT-29 cells (human colon cancer cells) were seeded in white walled 96-well plates at 10,000 cells per well in 100 μl McCoy's 5a (Invitrogen) media supplemented with 10% Fetal Bovine Serum (Invitrogen). After allowing cells to settle overnight, 5 μl of 20× test article was added to each well in replicate and incubated for 72 h. 72 hours after addition of compound, plates were removed from incubator and allowed to cool to room temperature. 50 μl of Cell Titer Glo 2.0 (Promega) was added to each well, incubated for 15 minutes, and plates were read on Glomax luminometer (Promega) using the Cell Titer Glo protocol. Raw luminometer readings for each plate were transformed by dividing the experimental well into the mean of untreated control wells. This is reported as ratio of untreated, and is plotted with Prism 6 software (Graph Pad) and fitted with a 4-parameter, variable slope curve.
Conjugates are assessed for receptor-dependent cytotoxicity by the difference between an NTSR1-targeting conjugate, and the corresponding conjugate with the same linker moiety and active agent where the NTSR1-targeting domain has been scrambled.

T1 sequence (P30989 whole entry): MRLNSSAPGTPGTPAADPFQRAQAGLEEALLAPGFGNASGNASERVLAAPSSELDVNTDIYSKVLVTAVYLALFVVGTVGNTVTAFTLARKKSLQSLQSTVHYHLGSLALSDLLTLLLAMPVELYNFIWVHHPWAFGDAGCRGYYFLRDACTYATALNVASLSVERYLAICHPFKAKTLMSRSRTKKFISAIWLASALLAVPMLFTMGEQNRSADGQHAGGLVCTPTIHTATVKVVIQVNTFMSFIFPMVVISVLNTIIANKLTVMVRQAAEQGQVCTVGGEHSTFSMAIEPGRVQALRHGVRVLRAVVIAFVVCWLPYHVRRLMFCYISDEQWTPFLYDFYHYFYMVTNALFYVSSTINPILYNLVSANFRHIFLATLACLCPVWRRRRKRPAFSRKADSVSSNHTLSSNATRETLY

SMILES | Ki (human NTSR1) [nM] | IC50 ([1]; NTSR1 targeted compound) [nM] | IC50 ([2]; NTSR1 targeted compound) [nM] | IC50 ([1]; NTSR1 scrambled compound) [nM] | IC50 ([2]; NTSR1 scrambled compound) [nM]
CC[C@H](C)[C@@H]([C@@H](CC(=O)N1CCC[C@H]1[C@H](OC)[C@@H](C)C(=O)N[C@H](C)[C@@H](O)c1ccccc1)OC)N(C)C(=O)[C@@H](NC(=O)[C@H](C(C)C)N(C)C(=O)OCCSSCCC(=O)NCCCC[C@H](NC(C)=O)C(=O)N1CCC[C@H]1C(=O)N(C)[C@@H](CCCNC(=N)N)C(=O)N[C@@H](CCCNC(=N)N)C(=O)N1CCC[C@H]1C(=O)N[C@@H](Cc1ccc(O)cc1)C(=O)N[C@H](C(=O)N[C@@H](CC(C)C)C(=O)O)C(C)(C)C)C(C)C [Compound 56] | 1.15 | 4.3 | 0.42 | – | –
COc1cc2cc(c1Cl)N(C)C(=O)C[C@H](OC(=O)[C@H](C)N(C)C(=O)CCSSCCC(=O)NCCCC[C@H](NC(C)=O)C(=O)N1CCC[C@H]1C(=O)N[C@@H](CC(C)C)C(=O)N1CCC[C@H]1C(=O)N(C)[C@@H](CCCNC(=N)N)C(=O)N[C@H](C(=O)N[C@@H](CCCNC(=N)N)C(=O)N[C@@H](Cc1ccc(O)cc1)C(=O)O)C(C)(C)C)[C@]1(C)O[C@H]1[C@H](C)[C@@H]1C[C@@](O)(NC(=O)O1)[C@H](OC)/C=C/C=C(\C)C2 [Compound 78] | – | – | – | 3 | 13.3
COc1cc2cc(c1Cl)N(C)C(=O)C[C@H](OC(=O)[C@H](C)N(C)C(=O)CCSC1CC(=O)N(CCCNC(=O)CNC(=O)[C@H](CC(C)C)NC(=O)[C@H](Cc3ccccc3)NC(=O)CNC(=O)CCC(=O)NCCCC[C@H](NC(C)=O)C(=O)N3CCC[C@H]3C(=O)N[C@@H](CC(C)C)C(=O)N3CCC[C@H]3C(=O)N(C)[C@@H](CCCNC(=N)N)C(=O)N[C@H](C(=O)N[C@@H](CCCNC(=N)N)C(=O)N[C@@H](Cc3ccc(O)cc3)C(=O)O)C(C)(C)C)C1=O)[C@]1(C)O[C@H]1[C@H](C)[C@@H]1C[C@@](O)(NC(=O)O1)[C@H](OC)/C=C/C=C(\C)C2 (some centres unmarked) [Compound 79] | 980 | – | – | 76 | 97
COc1cc2cc(c1Cl)N(C)C(=O)C[C@H](OC(=O)[C@H](C)N(C)C(=O)CCSC1CC(=O)N(CCCCCC(=O)NCCCC[C@H](NC(C)=O)C(=O)N3CCC[C@H]3C(=O)N[C@@H](CC(C)C)C(=O)N3CCC[C@H]3C(=O)N(C)[C@@H](CCCNC(=N)N)C(=O)N[C@H](C(=O)N[C@@H](CCCNC(=N)N)C(=O)N[C@@H](Cc3ccc(O)cc3)C(=O)O)C(C)(C)C)C1=O)[C@]1(C)O[C@H]1[C@H](C)[C@@H]1C[C@@](O)(NC(=O)O1)[C@H](OC)/C=C/C=C(\C)C2 (some centres unmarked) [Compound 80] | – | – | – | 81 | 116
CC[C@H](C)[C@@H]([C@@H](CC(=O)N1CCC[C@H]1[C@H](OC)[C@@H](C)C(=O)N[C@H](C)[C@@H](O)c1ccccc1)OC)N(C)C(=O)[C@@H](NC(=O)[C@H](C(C)C)N(C)C(=O)OCc1ccc(NC(=O)[C@H](CCCNC(N)=O)NC(=O)[C@@H](NC(=O)CCCCCN2C(=O)CC(SC(C)(C)[C@H](NC(C)=O)C(=O)N3CCC[C@H]3C(=O)N[C@@H](CC(C)C)C(=O)N3CCC[C@H]3C(=O)N[C@@H](CCCNC(=N)N)C(=O)N[C@H](C(=O)N[C@@H](CCCNC(=N)N)C(=O)N[C@@H](Cc3ccc(O)cc3)C(=O)O)C(C)(C)C)C2=O)C(C)C)cc1)C(C)C (some centres unmarked) [Compound 90] | – | – | – | 60 | 97
CC[C@H](C)[C@@H]([C@@H](CC(=O)N1CCC[C@H]1[C@H](OC)[C@@H](C)C(=O)N[C@H](C)[C@@H](O)c1ccccc1)OC)N(C)C(=O)[C@@H](NC(=O)[C@H](C(C)C)N(C)C(=O)OCCSSC(C)(C)[C@H](NC(C)=O)C(=O)N1CCC[C@H]1C(=O)N[C@@H](CC(C)C)C(=O)N1CCC[C@H]1C(=O)N[C@@H](CCCNC(=N)N)C(=O)N[C@H](C(=O)N[C@@H](CCCNC(=N)N)C(=O)N[C@@H](Cc1ccc(O)cc1)C(=O)O)C(C)(C)C)C(C)C [Compound 92] | – | – | – | 18 | 2.2
